Common to all, as to format: physicochemical
Series [1] in a line: Dissociation of salts/solvates in water. On the procedure:
(§1) Preparation of the isethionate salt of MJ 13156 is carried out by treating an equivalent of base in ethyl acetate with 2 equivalents of isethionic acid in ethanol-ethyl acetate solution. Chilling the mixture yields the salt which is collected by filtration. The salt can similarly be prepared by using more concentration solutions of both the acid and the base in ethanol.

A short description of series [2]: Water solubility of salts of MJ 13156 (Table 1, Method A or B). As to conditions: for Solubility: room temperature (about 25° C.). As for the experimental part: More conventional pharmaceutically acceptable acid addition salts of MJ 13156 are not well suited for the present use due to a limited solubility and, in some cases, lack of stability.
^1 Solubility data obtained using one of two methods:
Solubilities of isolated salts determined in standard manner by adding
H2 O to weighed salt samples and directly obtaining solubility data.
Solubilities of salts prepared in situ determined by adding a
moleequivalent of each acid to a 140 mg sample of MJ 13156 and then
diluting with H2 O in increments to 2.5 mg/mL. A second
moleequivalent of acid was added to each sample and allowed to stand
overnight. The precipitates were collected, dried, and weighed to obtain

Series [3] can be described thus: Basicity (ability of MJ 13156 to form salts with weak acids). As to conditions: gluconic, lactobionic, acetic, and levulinic acids. On the procedure: as §1
The mark [4] stands for this setting: Method B: salts prepared in situ from 140 mg MJ 13156, second moleequivalent of acid added, overnight.
[5] abbreviates: Method A: H2O added to weighed samples of isolated salts.
[6] abbreviates: listed as methanesulfonate salt.

Here are results for ten compounds from patent US4419358A, “Isethionic acid salt of 9-cyclohexyl-2-propoxy-9H-purine-6-amine and compositions containing an effective bronchodilating concentration of it” (Mead Johnson & Company, priority 1981, dated 1983).

SMILES strings stand for the structures. Read-outs that look alike come from different tables or passages of the source.

With `CCCOc1nc(N)c2ncn(C3CCCCC3)c2n1` [acetic acid solvate], the “dissociation in water (in words)” value in series [1] is “dissociated in water to give MJ 13156 base”.
Consider `CCCOc1nc(N)c2ncn(C3CCCCC3)c2n1` [hydrobromic], for which the Solubility in series [2] (setting [4]) was 1600 µg/mL.
As to `CCCOc1nc(N)c2ncn(C3CCCCC3)c2n1` [isethionic, 9-Cyclohexyl-2-propoxy-9H-purine-6-amine 2-Hydroxyethanesulfonate], in series [2] (setting [5]), the Solubility is 100000 µg/mL. The “water solubility (in words)” value in series [2] (listed as isethionate salt) is given as “clearly the most soluble of all those prepared”.
`CCCOc1nc(N)c2ncn(C3CCCCC3)c2n1` [hydrochloric]: the Solubility in series [2] (setting [5]) is 1400 µg/mL.
As to `CCCOc1nc(N)c2ncn(C3CCCCC3)c2n1` [sulfuric], the Solubility in series [2] (setting [4]) was determined as 800 µg/mL.
`CCCOc1nc(N)c2ncn(C3CCCCC3)c2n1` [MJ 13156, 9-cyclohexyl-2-propoxy-9H-purine-6-amine]: the “base strength (in words)” value in series [3] is listed as “too weak a base to form a salt with these acids”.
For `CC(=O)CCC(=O)O` [levulinic acid], the “dissociation in water (in words)” value in series [1] was “dissociated in water to give MJ 13156 base”.
As for `CCCOc1nc(N)c2ncn(C3CCCCC3)c2n1` [methanesulfonic], the Solubility in series [2] (setting [5]) was 8000 µg/mL. Moreover, the “water solubility (in words)” value in series [2] (setting [6]) is given as “reasonable water solubility”. In series [1] (setting [6]), the “dissociation in water (in words)” value was “dissociates moderately in water”.
`CCCOc1nc(N)c2ncn(C3CCCCC3)c2n1` [phosphoric]: the Solubility in series [2] (setting [4]) turned out to be 1300 µg/mL.
As to `CCCOc1nc(N)c2ncn(C3CCCCC3)c2n1` [nitric], in series [2] (setting [4]), the Solubility was 2400 µg/mL.
